Viability data for 85 compounds are collected here from article PMC12040169 (PLOS Biology, 2025).

SMILES strings stand for the structures.

The data set can be described thus: in vitro. The conditions noted are these: human, hela cells, % viability.
`CN(CC(=O)N(C)CC(F)(F)F)Cc1cccnc1` [CBK282075]: the viability at 28.5 h, 10 µM came out at 89.1%.
On to `CCn1nc(C)c(C(C)NC(=O)c2c3c(nn2CC)CCCC3)c1C` (stereo not shown) [CBK282077], for which the viability at 28.5 h, 10 µM is 85%.
`CCc1noc(C)c1C(=O)NCCN1CC(C)CC(C)C1` (stereo not shown) [CBK282081]: the viability at 28.5 h, 10 µM was determined as 113%.
Next, `C=C1C2(C(=O)N3CCC(Oc4cccnc4)CC3)CCC(C2)C1(C)C` (stereo not shown) [CBK282082]: 107%.
Next, `CN(C)CC1CCCCN1C(=O)[C@@H]1C[C@@H]2C=C[C@H]1C2` (stereo partly shown) [CBK282086]: 105%; `Cc1nn(C)cc1C(C)NC(=O)C1CC2C=CC1C21CC1` (stereo not shown) [CBK282088]: 100%; `CC(Cn1cncn1)C(=O)NC(C)C1CC2CCC1C2` (stereo not shown) [CBK282089]: 109%.
In the case of `CC(NC(=O)CCc1ccncc1)C1CC2CCC1C2` (stereo not shown) [CBK282090] it was 99.8%.
Take `CC(C)CN1CC(C(=O)N(C)CC2OCCc3ccccc32)CC1=O` (stereo not shown) [CBK282093]: the viability at 28.5 h, 10 µM stood at 102%.
On to `CC1Cc2cc(C(=O)N3CCCCC3CCN3CCCC3)ccc2O1` (stereo not shown) [CBK282094], for which the viability at 28.5 h, 10 µM was determined as 100%.
For `Cc1c(C(=O)NCCN2CCC(C)CC2)oc2c1C(O)CC(C)(C)C2` (stereo not shown) [CBK282100], the viability at 28.5 h, 10 µM amounted to 87.1%.
Next, `Cc1cccc(CN(Cc2ccccc2)C(=O)CCc2ccncc2)n1` [CBK282101]: 99.1%; `Cc1cc(C)n(C(C)CC(=O)NCC(C)N2CCC(C)CC2)n1` (stereo not shown) [CBK282104]: 108%.
Next, `COCc1ccc(C(=O)N2CCCC(c3cc4ncccc4[nH]3)C2)o1` (stereo not shown) [CBK282106]: 87%; `CC(Cc1cccs1)C(=O)N1CCn2cnnc2C1` (stereo not shown) [CBK282109]: 96%.
As for `Cc1c(CN2CCC(CO)C2)cnn1Cc1ccccc1` (stereo not shown) [CBK282113], the viability at 28.5 h, 10 µM was determined as 99.5%.
Take `OCCCn1cc(CN2CCC(CO)C2)c2ccccc21` (stereo not shown) [CBK282114]: the viability at 28.5 h, 10 µM came out at 98.6%.
As for `CC(Cc1ccccn1)NC(=O)Cc1ccc2c(c1)CCCO2` (stereo not shown) [CBK282115], the viability at 28.5 h, 10 µM was 95%.
Regarding `CC(CC(=O)N1CCC(Oc2ccccc2F)CC1)n1cccn1` (stereo not shown) [CBK282118], the viability at 28.5 h, 10 µM stood at 84.6%.
In the case of `CCn1cncc1CN1CC2CCCC(O)(c3ccc(F)cc3)C2C1` (stereo not shown) [CBK282119] it was 104%.
Next, `COCCn1cc(CN2CCC(CO)C2)c2ccccc21` (stereo not shown) [CBK282123]: 99.2%; `Cc1cc(CN2CCC(O)(c3cccnc3F)CC2)oc1C` [CBK282124]: 83%; `CC1CCCN(CC(O)c2ccc3c(c2)CC(C)N3C(=O)C2CC2)C1` (stereo not shown) [CBK282125]: 99.2%.
Next, `CC(C)C(=O)N1CCCc2cc(C(O)CN3CCCCC3)ccc21` (stereo not shown) [CBK282127]: 104%; `Cc1ncc(CN(Cc2ccccn2)Cc2ccccc2Cl)n1C` [CBK282128]: 97.6%; `Cn1cncc1CN(Cc1ccccn1)Cc1ccccc1Cl` [CBK282129]: 105%.
For `CCC(=O)N1CCCc2cc(C(O)CN3CCCCC3)ccc21` (stereo not shown) [CBK282130], the viability at 28.5 h, 10 µM came out at 81.6%.
In the case of `O=C(CN1CCN(C2CCCC2)C(=O)C1)N1CCCc2ccccc21` [CBK282132] it was 81.7%.
In the case of `CCn1nc(NC(=O)C2Cc3ccccc3CN2C)cc1C` (stereo not shown) [CBK282133] it was 93.8%; in that of `CCCN1C[C@H](NC(=O)CC)[C@@H](c2ccc(OC)cc2)C1` [CBK282134], 82.3%.
Next, `CCCN(CC1CCCO1)C(=O)c1cc2ccc(OC)cc2n1C` (stereo not shown) [CBK282139]: 92.8%; `CCn1cc(CN2CCCCCC2c2cc(C)on2)c(C)n1` (stereo not shown) [CBK282140]: 80.7%; `CCn1ncc(CN2CCCCCC2c2cc(C)on2)c1C` (stereo not shown) [CBK282141]: 91.7%.
Regarding `CC(=O)N1CCCc2cc(C(O)CN3CCCC(C)C3)ccc21` (stereo not shown) [CBK282142], the viability at 28.5 h, 10 µM turned out to be 84.1%.
Next, `CC(=O)N1CCCc2cc(C(O)CN3CCCC(C)(C)C3)ccc21` (stereo not shown) [CBK282143]: 94.3%.
Next, `O=C(C1CCCC1)N1CCCc2cc(C(O)CN3CCCC3)ccc21` (stereo not shown) [CBK282145]: 94.2%; `CCN(CC)CC1CCCN(C(=O)Cn2ccc3ccc(F)cc32)C1` (stereo not shown) [CBK282146]: 87.8%.
In the case of `Cc1nc2c(C)cccc2cc1C(=O)NCCCc1ccccn1` [CBK282148] it was 82.8%; in that of `CC(=O)N1CCCc2cc(C(O)CN(C)Cc3ccccc3)ccc21` (stereo not shown) [CBK282149], 88.5%.
For `CC(Cc1ccccn1)N(C)C(=O)c1cccc(N2CCCC2=O)c1` (stereo not shown) [CBK282153], the viability at 28.5 h, 10 µM came out at 104%.
As to `Cn1nc(C2CCCN(C(=O)c3cccc(F)c3)C2)c2cccnc21` (stereo not shown) [CBK282155], the viability at 28.5 h, 10 µM amounted to 85.8%.
For the compound `CC1CC1C(=O)N1CCCC(c2cc3cccnc3[nH]2)C1` (stereo not shown) [CBK282156], the viability at 28.5 h, 10 µM was found to be 80.3%.
Next, `Cc1ccc2c(CC(=O)N(C)CCN(C)C)c(C)[nH]c2c1C` [CBK282157]: 102%; `Cc1oc2ccc(O)cc2c1C(=O)N(C)CCN1CCCCC1` [CBK282158]: 83%.
Next, `CCn1cc(CN2CCCCCC2c2cc(C)no2)c(C)n1` (stereo not shown) [CBK282159]: 95.6%.
In the case of `Cc1oc2ccc(O)cc2c1C(=O)NCCCN1CC(C)CC(C)C1` (stereo not shown) [CBK282161] it was 110%; in that of `Cc1cccc(C2(O)CCN(C(=O)c3cc(C(C)C)nn3C)CC2)c1` [CBK282163], 87.5%.
For the compound `CC1CC1C(=O)N1CCCC(c2nn(C)c3ncccc23)C1` (stereo not shown) [CBK282167], the viability at 28.5 h, 10 µM came to 85.7%.
Next, `Cc1oc2c(c1CC(=O)N(C)CCN(C)C)C(=O)CC(C)(C)C2` [CBK282171]: 105%; `CN(C)CCN(C)C(=O)Cc1csc(-c2ccccc2F)n1` [CBK282173]: 112%.
In the case of `Cc1cc(C)c2c(CC(=O)N(C)CCN(C)C)coc2c1` [CBK282174], the viability at 28.5 h, 10 µM came out at 106%.
As for `CN(C)CCN(C)C(=O)Cc1csc(-c2cccc(Cl)c2)n1` [CBK282176], the viability at 28.5 h, 10 µM amounted to 111%.
Next, `O=C(CN1CCCC1=O)NC(Cc1cccs1)c1nccs1` (stereo not shown) [CBK282177]: 104%; `CN(CCN1CCCCC1)C(=O)C1(c2ccc(F)cc2)CC1` [CBK282178]: 95.4%.
On to `COCCC(=O)NC(Cc1cccs1)c1nccs1` (stereo not shown) [CBK282180], for which the viability at 28.5 h, 10 µM turned out to be 83.3%.
In the case of `CN(C)CCN(C(=O)Cc1ccc2c(c1)CCC2)C1CCN(C)CC1` [CBK282182] it was 84.6%; in that of `Cc1nccn1CC1(O)CCN(C(=O)Cc2cccc(F)c2)CC1` [CBK282184], 109%; in that of `COCC(=O)N1CCC(c2cc3nc(C(F)(F)F)ccc3[nH]2)CC1` [CBK282185], 110%.
In the case of `Cc1nn(C)c(C)c1CN(C)C(=O)C(C)Cn1cc(Cl)cn1` (stereo not shown) [CBK282187] it was 92.8%.
Regarding `COCc1ccc(C(=O)NCC2CCCOC2)o1` (stereo not shown) [CBK282188], the viability at 28.5 h, 10 µM was 83.3%.
On to `CC(C)CN1CC(C(=O)NCc2ccccc2-n2ccnc2)CC1=O` (stereo not shown) [CBK282189], for which the viability at 28.5 h, 10 µM is 104%.
Turning to `CC(Cn1cnc2ccccc21)C(=O)N1CCCCC1CN(C)C` (stereo not shown) [CBK282191], the viability at 28.5 h, 10 µM was determined as 106%.
For the compound `CC1Cc2cc(C(=O)N3CCCCC3CN(C)C)ccc2O1` (stereo not shown) [CBK282193], the viability at 28.5 h, 10 µM was 110%.
For `Cc1nc(C)c(C(=O)NCC2CCCOC2)s1` (stereo not shown) [CBK282194], the viability at 28.5 h, 10 µM was 97.2%.
For the compound `Cc1cc(CNC(=O)C(C)n2cnc3ccccc32)on1` (stereo not shown) [CBK282196], the viability at 28.5 h, 10 µM turned out to be 90.7%.
In the case of `Cc1ccn(CCC(=O)NC(C)c2cccnc2)n1` (stereo not shown) [CBK282197] it was 97.6%.
Next, `Cc1nc(SCC(=O)NC(C)c2cccnc2)oc1C` (stereo not shown) [CBK282198]: 93.2%; `CC(NC(=O)CCn1cncn1)c1cccs1` (stereo not shown) [CBK282199]: 103%.
In the case of `CCc1noc(C)c1C(=O)NCC1CCCCN1CC` (stereo not shown) [CBK282201] it was 97.3%; in that of `CC(C(=O)NCCc1ccncc1)n1cnc2ccccc21` (stereo not shown) [CBK282202], 103%.
Take `CC(NC(=O)c1cc(C(F)(F)F)n(C)n1)c1cccnc1` (stereo not shown) [CBK282203]: the viability at 28.5 h, 10 µM was found to be 97.6%.
In the case of `CCN1CCCCC1CNC(=O)c1sc(C)nc1C` (stereo not shown) [CBK282206], the viability at 28.5 h, 10 µM was determined as 90.2%.
In the case of `CCN1CCCCC1CNC(=O)Cn1nc(C)c(C)c1C` (stereo not shown) [CBK282208] it was 105%; in that of `Cc1cc2ccccc2n1CC(=O)N1CCn2cnnc2C1` [CBK282209], 108%; in that of `Cc1nccn1CC(=O)N1CCCC(C)(C(=O)NC2CCCC2)C1` (stereo not shown) [CBK282210], 91.8%.
In the case of `COCc1nc2ccccc2n1CC(=O)N1CCC(c2ccccc2)C1` (stereo not shown) [CBK282211] it was 97.1%.
In the case of `Cc1ccc(C2CCCN2C(=O)C(C)Cn2cncn2)cc1C` (stereo not shown) [CBK282213] it was 98.9%.
Turning to `Cc1c(C(=O)N(C)CC(F)(F)F)nnn1-c1ccc(F)cc1` [CBK282214], the viability at 28.5 h, 10 µM amounted to 89.8%.
Next, `COc1ccc(OCC2CCN(C(=O)[C@@H]3C[C@@H]4C=C[C@H]3C4)CC2)cc1` [CBK282218]: 93.5%.
In the case of `COc1ccccc1C(=O)N1CCC(c2nc(C)n3ccccc23)C1` (stereo not shown) [CBK282221] it was 88.4%; in that of `Cc1nc(C)c(CC(=O)N2CCC(Oc3cccc(F)c3)CC2)s1` [CBK282223], 97.4%; in that of `COc1ccccc1CNC(=O)CCn1ccc2ccncc21` [CBK282229], 91.9%.
As for `Cc1ccnn1CCC(=O)N1CCCC1c1cc2cccnc2[nH]1` (stereo not shown) [CBK282230], the viability at 28.5 h, 10 µM is 111%.
In the case of `Cc1nn(C)cc1C(=O)N1CCC(c2cc3c(C)cccc3cn2)CC1` [CBK282231] it was 103%.
Next, `CC(=O)NC(c1nccs1)C1CCN(C(=O)C2CC2C)CC1` (stereo not shown) [CBK282232]: 101%.
